Values joined by “and” are separate entries in the source; they are usually repeats but may differ in a detail not shown here. Identical values can stand only once. Like-named read-outs stand apart in the source and are kept apart here.
Assays:
[1] = tested on: SARS-CoV-2 replicon; assay: microbe, parasite or virus in culture; type: cell-based; conditions: read-out: Replicon EC50
[2] = tested on: human coronavirus (HCoV) 229E; assay: microbe, parasite or virus in culture; type: cell-based, human coronavirus 229E; conditions: MRCS cells, HCoV 229E, 3 days, CellTiter Glo, read-out: 229E CPE EC50
Method: Test compounds were provided by the sponsor. Reference compound remdesivir was provided by WuXi AppTec. Compounds were assayed at 8 concentrations (to be defined by sponsor), in duplicate wells.
MRCS cells were obtained from the ATCC, and maintained in the Minimum Essential Medium supplemented with 10% FBS, 1% L-glutamine, 1% NEAA and 1% penicillin-streptomycin. Minimum Essential Medium supplemented with 5% FBS, 1% L-glutamine, 1% NEAA and 1% penicillin-streptomycin was used as the assay medium.
Cells were seeded in 96 well plates, in 100 μl per well of assay medium, and cultured at 37° C. and 5% CO2 overnight. Next day, test compound was diluted with assay medium and then added into the cells, 50 μl per well. Then 50 μl per well of assay medium diluted virus was added. The final volume of the cell culture was 200 μl per well. […] The CPE were measured by CellTiter Glo following the manufacturer's manual. The antiviral activity of compounds was calculated based on the protection of the virus-induced CPE at each concentration normalized by the virus control.
EC50 and CC50 values were calculated using the GraphPad Prism software using the nonlinear regression model of log(inhibitor) vs. response—Variable slope (four parameters).

[3] = Severe acute respiratory syndrome coronavirus 2, Huh-7, 24 h
[4] = unidentified human coronavirus, 72 h

| Structure (SMILES) | EC50 [1, 3] [µM] | EC50 [1] | EC50 [2] [µM] | EC50 [2, 4] [µM] |
| --- | --- | --- | --- | --- |
| CC(C)(C)NC(=O)N[C@H](C(=O)N1C[C@H]2[C@@H]([C@H]1C(=O)N[C@H](C#N)C[C@@H]1CCNC1=O)C2(C)C)C(C)(C)C [Compound 87] | 0.45 | 0.8 µM | 14 | 9.07 |
| CC(C#N)C(=O)N[C@H](C(=O)N1C[C@H]2[C@@H]([C@H]1C(=O)N[C@H](C#N)C[C@@H]1CCNC1=O)C2(C)C)C(C)(C)C (stereo partly shown) [Compound 88] | 0.19 | 0.25 µM | 4.56 | 2.5 |
| CC(C)(C)[C@H](NS(=O)(=O)c1ccc(OC(F)(F)F)cc1)C(=O)N1C[C@H]2[C@@H]([C@H]1C(=O)N[C@H](C#N)C[C@@H]1CCNC1=O)C2(C)C [Compound 89] | 0.14 | 0.16 µM | 0.468 | 0.322 |
| CC(C)(C)[C@H](NS(=O)(=O)c1ccc(C(F)(F)F)cc1)C(=O)N1C[C@H]2[C@@H]([C@H]1C(=O)N[C@H](C#N)C[C@@H]1CCNC1=O)C2(C)C [Compound 90] |  | 0.067 µM and 0.076 µM | 0.387 | 0.254 |
| CC1(C)[C@@H]2[C@@H](C(=O)N[C@H](C#N)C[C@@H]3CCNC3=O)N(C(=O)[C@@H](NC(=O)C(F)(F)F)C34CC(C(F)(F)F)(C3)C4)C[C@@H]21 [Compound 91] | 0.33 |  |  | 10.9 |
| C=C(C(=O)N[C@H](C(=O)N1C[C@H]2[C@@H]([C@H]1C(=O)N[C@H](C#N)C[C@@H]1CCNC1=O)C2(C)C)C(C)(C)C)C(F)(F)F [Compound 92] | 1.76 |  |  | 17.1 |
| CC(C)(C)[C@H](NC(=O)c1ccc(F)cc1)C(=O)N1C[C@H]2[C@@H]([C@H]1C(=O)N[C@H](C#N)C[C@@H]1CCNC1=O)C2(C)C [Compound 94] | 0.96 |  |  | 4.29 |
| CC(C)(C)[C@H](NS(=O)(=O)c1ccccc1)C(=O)N1C[C@H]2[C@@H]([C@H]1C(=O)N[C@H](C#N)C[C@@H]1CCNC1=O)C2(C)C [Compound 95] | 0.037 | 0.068 µM | 0.521 | 0.358 |
| COC(=O)NS(=O)(=O)N[C@H](C(=O)N1C[C@H]2[C@@H]([C@H]1C(=O)N[C@H](C#N)C[C@@H]1CCNC1=O)C2(C)C)C(C)(C)C [Compound 97] | > 10 |  |  | > 30 |
| CC(C)(C)[C@H](NS(=O)(=O)C[C@]12CC[C@H](CC1=O)C2(C)C)C(=O)N1C[C@H]2[C@@H]([C@H]1C(=O)N[C@H](C#N)C[C@@H]1CCNC1=O)C2(C)C [Compound 98] | 3.65 |  |  | 3.31 |
| CC(C)(C)[C@H](NS(=O)(=O)c1ccc(F)c(F)c1)C(=O)N1C[C@H]2[C@@H]([C@H]1C(=O)N[C@H](C#N)C[C@@H]1CCNC1=O)C2(C)C [Compound 99] | 0.088 | 0.1 µM | 0.344 | 0.271 |
| COc1ccc(S(=O)(=O)N[C@H](C(=O)N2C[C@H]3[C@@H]([C@H]2C(=O)N[C@H](C#N)C[C@@H]2CCNC2=O)C3(C)C)C(C)(C)C)cc1 [Compound 101] | 0.024 | 0.041 µM | 0.91 | 0.514 |
| CC(C)(C)[C@H](NC(=O)C(F)(F)F)C(=O)N1C[C@H]2[C@@H]([C@H]1C(=O)N[C@H](/C=C/C#N)C[C@@H]1CCNC1=O)C2(C)C [Compound 103] | 0.65 |  |  | 16.9 |
| CN(C)C(C)(C)C(=O)N[C@H](C(=O)N1C[C@H]2[C@@H]([C@H]1C(=O)N[C@H](C#N)C[C@@H]1CCNC1=O)C2(C)C)C(C)(C)C [Compound 104] | > 10 |  |  | 12.7 |
| CC1(C)[C@@H]2[C@@H](C(=O)N[C@H](C#N)C[C@@H]3CCNC3=O)N(C(=O)[C@@H](NC(=O)C(F)(F)F)c3ccc(F)cc3)C[C@@H]21 [Compound 105] | 0.65 |  |  | 6.18 |
| CC(C)(C)[C@H](NC(=O)c1ccc2ccccc2c1)C(=O)N1C[C@H]2[C@@H]([C@H]1C(=O)N[C@H](C#N)C[C@@H]1CCNC1=O)C2(C)C [Compound 106] | 0.86 |  |  | 4.02 |
| CC(C)(C)[C@H](NC(=O)c1ccccn1)C(=O)N1C[C@H]2[C@@H]([C@H]1C(=O)N[C@H](C#N)C[C@@H]1CCNC1=O)C2(C)C [Compound 107] | 3.77 |  |  | 23.3 |
| CC(C)(C)[C@H](NC(=O)c1ccc(F)c(F)c1)C(=O)N1C[C@H]2[C@@H]([C@H]1C(=O)N[C@H](C#N)C[C@@H]1CCNC1=O)C2(C)C [Compound 108] | 0.33 |  |  | 3.91 |
| CC(C)(C)[C@H](NC(=S)N1CCCCC1)C(=O)N1C[C@H]2[C@@H]([C@H]1C(=O)N[C@H](C#N)C[C@@H]1CCNC1=O)C2(C)C [Compound 109] | 0.875 |  |  | 0.985 |
| CC(C)[C@H]1CC[C@H](C)C[C@@H]1OCC(=O)N[C@H](C(=O)N1C[C@H]2[C@@H]([C@H]1C(=O)N[C@H](C#N)C[C@@H]1CCNC1=O)C2(C)C)C(C)(C)C [Compound 110] | 1.36 |  |  | 23.5 |

| Structure (SMILES) | EC50 [1, 3] [µM] | EC50 [1] | EC50 [2] [µM] | EC50 [2, 4] [µM] |
| --- | --- | --- | --- | --- |
| CC(C)(C)[C@H](NS(=O)(=O)c1cc2ccccc2s1)C(=O)N1C[C@H]2[C@@H]([C@H]1C(=O)N[C@H](C#N)C[C@@H]1CCNC1=O)C2(C)C [Compound 111] | 0.0034 | 0.0046 µM |  | 0.13 |
| CC(C)(C)[C@H](NC(=O)C1(CS(=O)(=O)C(C)(C)C)CCCCC1)C(=O)N1C[C@H]2[C@@H]([C@H]1C(=O)N[C@H](C#N)C[C@@H]1CCNC1=O)C2(C)C [Compound 115] | 3 |  |  | > 30 |
| CN(C)[C@@H]1C[C@@H](C(=O)N[C@H](C#N)C[C@@H]2CCNC2=O)N(C(=O)[C@@H](NC(=O)C(F)(F)F)C(C)(C)C)C1 [Compound 116] | 0.74 |  |  | > 30 |
| CC(C)(C)[C@H](NC(=O)c1cccc2ccccc12)C(=O)N1C[C@H]2[C@@H]([C@H]1C(=O)N[C@H](C#N)C[C@@H]1CCNC1=O)C2(C)C [Compound 119] | 0.34 |  |  | 0.546 |
| CC(C)(C)[C@H](NC(=O)c1ccc2c(c1)CCC2)C(=O)N1C[C@H]2[C@@H]([C@H]1C(=O)N[C@H](C#N)C[C@@H]1CCNC1=O)C2(C)C [Compound 120] | 2.24 |  |  | 4.72 |
| CC(C)(C)[C@H](NS(=O)(=O)c1ccns1)C(=O)N1C[C@H]2[C@@H]([C@H]1C(=O)N[C@H](C#N)C[C@@H]1CCNC1=O)C2(C)C [Compound 122] | 0.047 | 0.062 µM |  | 0.147 |
| CC(C)(C)[C@H](NC(=S)NC1CC(F)(F)C1)C(=O)N1C[C@H]2[C@@H]([C@H]1C(=O)N[C@H](C#N)C[C@@H]1CCNC1=O)C2(C)C [Compound 123] | 0.79 |  |  | 0.7 |
| CC(C)(C)[C@H](NC(=S)NC1CCC1)C(=O)N1C[C@H]2[C@@H]([C@H]1C(=O)N[C@H](C#N)C[C@@H]1CCNC1=O)C2(C)C [Compound 124] | 0.5 |  |  | 0.801 |
| CC(C)(C)[C@H](NC(=S)NC1CCC1)C(=O)N1C[C@H]2[C@@H]([C@H]1C(=O)N[C@H](C#N)C[C@@H]1CCN(C(=O)C(F)(F)F)C1=O)C2(C)C [Compound 125] | 0.068 |  |  | 0.708 |
| CC1(NC(=S)N[C@H](C(=O)N2C[C@H]3[C@@H]([C@H]2C(=O)N[C@H](C#N)C[C@@H]2CCNC2=O)C3(C)C)C(C)(C)C)CC1 [Compound 126] | 0.024 |  |  | 0.193 |
| CNC(=O)N[C@H](C(=O)N1C[C@H](N(C)C)C[C@H]1C(=O)N[C@H](C#N)C[C@@H]1CCNC1=O)C(C)(C)C [Compound 128] | > 10 |  |  | > 30 |
| COC(=O)N[C@H](C(=O)N1C[C@H](N(C)C)C[C@H]1C(=O)N[C@H](C#N)C[C@@H]1CCNC1=O)C(C)(C)C [Compound 129] | 6.87 |  |  | > 30 |
| COc1ccccc1S(=O)(=O)N[C@H](C(=O)N1C[C@H]2[C@@H]([C@H]1C(=O)N[C@H](C#N)C[C@@H]1CCNC1=O)C2(C)C)C(C)(C)C [Compound 130] | 0.093 | 0.13 µM | 1.23 | 1.09 |
| C=CCS(=O)(=O)N[C@H](C(=O)N1C[C@H]2[C@@H]([C@H]1C(=O)N[C@H](C#N)C[C@@H]1CCNC1=O)C2(C)C)C(C)(C)C [Compound 131] | 0.12 | 0.18 µM |  | 0.657 |
| CC(C)(C)[C@H](NS(=O)(=O)CC#N)C(=O)N1C[C@H]2[C@@H]([C@H]1C(=O)N[C@H](C#N)C[C@@H]1CCNC1=O)C2(C)C [Compound 132] | 0.064 | 0.075 µM | 0.591 | 0.589 |
| CC(C)c1cc(C(C)C)c(S(=O)(=O)N[C@H](C(=O)N2C[C@H]3[C@@H]([C@H]2C(=O)N[C@H](C#N)C[C@@H]2CCNC2=O)C3(C)C)C(C)(C)C)c(C(C)C)c1 [Compound 134] | 7.99 | > 10 µM |  | > 30 |
| CC(C)(C)[C@H](NS(=O)(=O)c1cc2c(s1)CCCC2)C(=O)N1C[C@H]2[C@@H]([C@H]1C(=O)N[C@H](C#N)C[C@@H]1CCNC1=O)C2(C)C [Compound 135] | 0.024 | 0.034 µM | 0.067 | 0.064 |
| CC(C)(C)[C@H](NC(=O)CCC(F)(F)F)C(=O)N1C[C@H]2[C@@H]([C@H]1C(=O)N[C@H](C#N)C[C@@H]1CCNC1=O)C2(C)C [Compound 138] | 0.33 | 0.5 µM |  | 0.622 |
| C/C(=C\C(=O)N[C@H](C(=O)N1C[C@H]2[C@@H]([C@H]1C(=O)N[C@H](C#N)C[C@@H]1CCNC1=O)C2(C)C)C(C)(C)C)C(F)(F)F [Compound 140] | 0.35 | 0.41 µM |  | 0.619 |
